Data on three compounds can be found in patent US20230234936A1, “COMPOUND FOR TARGETING AND DEGRADING PROTEIN, AND PREPARATION METHOD THEREFOR AND USE THEREOF” (SHANGHAI LEADINGTAC PHARMACEUTICAL CO., LTD., priority 2020, published 2023).

The test deals with T1, IKZF1 in L363 cells (Homo sapiens, UniProt Q13422+Q96SW2).
T1 construct: endogenous in cells; host or cells: L363
T1 sequence (Q13422 whole entry): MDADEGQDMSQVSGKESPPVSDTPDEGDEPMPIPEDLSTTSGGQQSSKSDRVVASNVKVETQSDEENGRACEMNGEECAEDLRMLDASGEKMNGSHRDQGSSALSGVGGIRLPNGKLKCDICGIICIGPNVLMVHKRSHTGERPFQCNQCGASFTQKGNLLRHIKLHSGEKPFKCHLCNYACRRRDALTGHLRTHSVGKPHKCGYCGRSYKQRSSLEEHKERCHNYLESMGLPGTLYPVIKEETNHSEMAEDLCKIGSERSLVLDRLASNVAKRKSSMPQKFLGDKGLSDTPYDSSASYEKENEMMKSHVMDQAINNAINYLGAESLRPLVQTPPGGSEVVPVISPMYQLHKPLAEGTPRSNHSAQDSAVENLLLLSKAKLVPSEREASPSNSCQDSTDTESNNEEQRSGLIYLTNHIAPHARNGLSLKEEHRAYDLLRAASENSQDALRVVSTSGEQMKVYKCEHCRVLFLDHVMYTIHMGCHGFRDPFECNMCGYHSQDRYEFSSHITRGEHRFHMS
T1 sequence (Q96SW2 whole entry): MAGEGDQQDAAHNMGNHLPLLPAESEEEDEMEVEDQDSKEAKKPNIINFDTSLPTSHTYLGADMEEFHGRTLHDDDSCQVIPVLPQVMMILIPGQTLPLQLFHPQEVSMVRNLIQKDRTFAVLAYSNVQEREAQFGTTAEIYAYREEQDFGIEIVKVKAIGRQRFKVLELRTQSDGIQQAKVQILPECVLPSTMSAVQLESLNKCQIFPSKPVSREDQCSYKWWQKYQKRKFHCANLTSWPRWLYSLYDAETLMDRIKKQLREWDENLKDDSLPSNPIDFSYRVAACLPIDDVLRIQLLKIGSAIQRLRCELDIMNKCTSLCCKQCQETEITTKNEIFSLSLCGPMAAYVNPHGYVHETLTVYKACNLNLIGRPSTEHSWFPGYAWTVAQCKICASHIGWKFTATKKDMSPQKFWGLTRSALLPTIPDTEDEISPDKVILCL
T1 sequence (Q16531 whole entry partner): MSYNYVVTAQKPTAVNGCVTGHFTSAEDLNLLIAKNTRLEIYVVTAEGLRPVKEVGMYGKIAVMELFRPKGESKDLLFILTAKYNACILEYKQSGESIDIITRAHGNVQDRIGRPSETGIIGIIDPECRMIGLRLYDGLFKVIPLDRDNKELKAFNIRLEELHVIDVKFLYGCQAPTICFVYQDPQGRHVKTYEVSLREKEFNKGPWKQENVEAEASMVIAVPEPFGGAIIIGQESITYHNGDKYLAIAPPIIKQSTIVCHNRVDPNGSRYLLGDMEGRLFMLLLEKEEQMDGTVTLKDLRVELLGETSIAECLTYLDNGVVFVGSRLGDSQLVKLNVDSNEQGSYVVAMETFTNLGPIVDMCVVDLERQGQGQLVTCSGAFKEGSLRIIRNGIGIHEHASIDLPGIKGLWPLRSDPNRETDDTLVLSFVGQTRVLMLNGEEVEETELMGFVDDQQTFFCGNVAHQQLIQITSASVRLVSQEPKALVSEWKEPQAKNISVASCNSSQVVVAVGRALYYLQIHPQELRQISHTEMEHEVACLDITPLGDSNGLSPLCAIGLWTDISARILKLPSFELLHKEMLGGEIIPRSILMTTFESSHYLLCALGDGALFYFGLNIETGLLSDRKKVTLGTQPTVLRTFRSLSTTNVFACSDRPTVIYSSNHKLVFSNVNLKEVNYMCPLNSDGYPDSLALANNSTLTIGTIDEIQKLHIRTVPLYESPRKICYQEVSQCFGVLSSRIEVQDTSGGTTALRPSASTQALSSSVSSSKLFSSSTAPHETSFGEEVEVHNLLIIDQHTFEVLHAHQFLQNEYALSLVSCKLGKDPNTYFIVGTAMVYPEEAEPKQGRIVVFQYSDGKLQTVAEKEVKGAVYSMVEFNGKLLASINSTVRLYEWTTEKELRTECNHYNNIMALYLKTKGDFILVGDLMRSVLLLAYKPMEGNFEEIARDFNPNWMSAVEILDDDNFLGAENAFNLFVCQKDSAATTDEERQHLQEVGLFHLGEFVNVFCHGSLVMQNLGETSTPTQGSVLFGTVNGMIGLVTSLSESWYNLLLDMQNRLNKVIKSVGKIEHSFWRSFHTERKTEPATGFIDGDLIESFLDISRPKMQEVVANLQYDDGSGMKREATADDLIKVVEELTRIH
Put plainly: Degradation of IKZF1 in L363 cells (Western blot). The class given is cell-based. The note with it: 1000 nM, 16 hours. The procedure: The 24-well cell culture plate was inoculated with 0.95 mL L363 cells (Nanjing Co-bioer) per well with a cell density of 6×10^5 cells/well. The cell plate was placed in a 5% carbon dioxide incubator and cultured at 37° C. for 8 hours, then 50 μL of compound solution was added. The final concentration of the compound was 1000 nM. After continuing to culture for 16 hours, the cells were collected into a 1.5 mL centrifuge tube and centrifuged at 3000 rpm and 4° C. for 5 minutes. Cell precipitation was cleaned twice with 1×DPBS, resuspended cells were lysed with 100 μL lysate (cell lysate was Western and IP cell lysate (Beyotime), supplemented with 1 mM mixture of phenylmethylsulfonyl fluoride and protease inhibitor (Beyotime)), left on ice for 30 minutes, then centrifuged at 14000 g at 4° C. for 10 minutes, and the supernatant was taken to detect IKZF1 and IKZF3 protein level by Western blot.
The total protein concentration in the supernatant of cell lysis was determined by BCA protein quantitative kit (Tiangen). According to the concentration of total protein detected by BCA, the supernatant was adjusted to 0.2 μg/μL with PBS and 5× SDS-PAGE protein loading buffer (Beyotime), bathed in water at 100° C. for 10 minutes, then placed in ice bath for 5 minutes, centrifuged at 14000 g and 4° C. for 5 minutes, and then collected as WB loading sample. Prefabricated glue (KeyGEN) was used for protein electrophoresis with a loading amount of 10 μL (total protein 2 μg). After Tris-MOPS-SDS electrophoresis solution (Adamas), 120V constant pressure electrophoresis was performed. After electrophoresis, the protein on the adhesive strip was transferred to PVDF membrane with a constant current of […] for 50 minutes. After the membrane was transferred, the membrane was incubated in 5% bovine serum albumin solution for 2 hours at room temperature. After blocking, PVDF membranes were incubated with IKZF1 primary antibody (CST) and IKZF3 primary antibody (Abcam) overnight at 4°, the membranes were washed with TBST buffer (2.4 g Tris, 8.8 g NaCl, 1.5 mL Tween 20, pH adjusted to 7.4, constant volume to IL) for 30 minutes, incubated with secondary antibody (Abcam) for 2 hours at room temperature, finally incubated with Clarity Western ECL Substrate(BIO-RAD) for 5 minutes for luminescence development, chemiluminescence imaging system (Clinx, chemiScope 6200 Touch) for development and protein mapping photography. The protein map was analyzed by Clinx chemiluminescence analysis software for grayscale values. Using the formula: grayscale correction value=(target protein grayscale value/corresponding internal reference grayscale value)×10^3, the grayscale correction value of each sample was calculated. The degradation rate was calculated by comparing with the grayscale correction value of the control group.
(In general: A western blot detects proteins with antibodies after separation by electrophoresis.)
`COc1cc2nn(C3CCN(CC4CCN(CCOc5ccc6c(c5)C(=O)N(C5CCC(=O)NC5=O)C6=O)CC4)CC3)cc2cc1NC(=O)c1cccc(C(F)(F)F)n1` (stereo not drawn) [Control group 2, N-(2-(1-((1-(2-((2-(2,6-dioxopiperidin-3-yl)-1,3-dioxoisoindol-5-yl)oxy)ethyl)piperidin-4-yl)methyl)piperidin-4-yl)-6-methoxy-2H-indazol-5-yl)-6-(trifluoromethyl) pyridinecarboxamide, reference compound] yielded an IKZF1 degradation rate of 47.5 ± 9.7%.

`CN(CC1CCN(c2cccc3c2C(=O)N(C2CCC(=O)NC2=O)C3=O)CC1)C[C@H]1CC[C@H](n2cc3cc(NC(=O)c4cccc(C(F)(F)F)n4)c(C(C)(C)O)cc3n2)CC1` (stereo partly drawn) [Control group 3, N-(2-((1r,4r)-4-((((1-(2-(2,6-dioxopiperidin-3-yl)-1,3-dioxoisoindolin-4-yl)piperidin-4-yl)methyl) (methyl)amino)methyl)cyclohexyl)-6-(2-hydroxyprop-2-yl)-2H-indazol-5-yl)-6-(trifluoromethyl) pyridinecarboxamide, reference compound]: the IKZF1 degradation rate was found to be 97.2 ± 2.6%. As for `CC(C)(O)c1cc2nn(C3CCN(CC4CCC5(CC4)CCN(C(=O)c4ccc(Cl)c(N6CCC(=O)NC6=O)c4)CC5)CC3)cc2cc1NC(=O)c1cccc(C(F)(F)F)n1` [Example 31, N-(2-(1-((3-(4-chloro-3-(2,4-dioxotetrahydro-pyrimidin-1 (2H)-yl)benzoyl)-3-azaspiro [5.5]undec-9-yl)methyl)piperdin-4-yl)-6-(2-hydroxyprop-2-yl)-2H-indazol-5-yl)-6-(trifluoro-methyl) pyridinecarbox-amide], the figure is 8.4 ± 13.9%.
